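Cells were grown in 96-well plates and exposed to each compound for 48 hours at five concentrations; endpoints were interpolated linearly between bracketing concentrations, or set to the highest concentration if not reached. At the GI50, growth is halved.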 Active and inactive are the calls of the source. Cut-off read from the data, not from the text of the source: active = GI50 up to about 1.1 µM and inactive = higher.
Tests used:
Assay in all cases: NCI tumour cell line growth inhibition, 48 h
HCC 2998 = tested on: HCC 2998
SR = tested on: SR
MOLT-4 = tested on: MOLT-4
NCI-H522 = tested on: NCI-H522
SK-MEL-2 = tested on: SK-MEL-2
RPMI-8226 = tested on: RPMI-8226
MDA-N = tested on: MDA-N
SK-MEL-28 = tested on: SK-MEL-28
UACC-62 = tested on: UACC-62
786-0 = tested on: 786-0
OVCAR-5 = tested on: OVCAR-5
MDA-MB-231 = tested on: MDA-MB-231
NCI-H226 = tested on: NCI-H226
ACHN = tested on: ACHN
HCT-116 = tested on: HCT-116
SNB-19 = tested on: SNB-19
BT-549 = tested on: BT-549
CCRF-CEM = tested on: CCRF-CEM
Malme-3M = tested on: Malme-3M
MCF7 = tested on: MCF7

Measured: GI50

O=P(NC12CC3CC(CC(C3)C1)C2)(N1CC1)N1CC1
inactive: HCC 2998 > 100 µM | SR 2.05 µM | MOLT-4 3.3 µM | NCI-H522 25.7 µM | SK-MEL-2 > 100 µM | RPMI-8226 > 66.1 µM | MDA-N > 100 µM | SK-MEL-28 > 100 µM | UACC-62 4.16 µM | 786-0 23.2 µM | OVCAR-5 > 100 µM | MDA-MB-231 > 100 µM | NCI-H226 41.6 µM | ACHN 4.67 µM | HCT-116 43.7 µM | SNB-19 17.1 µM | BT-549 > 100 µM | CCRF-CEM 7.24 µM | Malme-3M 84.9 µM | MCF7 9.71 µM

Cc1ccc(C2CC(=O)CC(c3ccc(C)cc3)C23C(=O)NC(=O)NC3=O)cc1 (stereo not given)
inactive: HCC 2998 > 100 µM | SR 60.1 µM | MOLT-4 45 µM | NCI-H522 > 100 µM | SK-MEL-2 > 100 µM | RPMI-8226 > 100 µM | MDA-N > 100 µM | SK-MEL-28 > 100 µM | UACC-62 > 100 µM | 786-0 > 100 µM | OVCAR-5 > 100 µM | MDA-MB-231 > 100 µM | NCI-H226 > 100 µM | ACHN > 100 µM | HCT-116 > 100 µM | SNB-19 > 100 µM | BT-549 > 100 µM | CCRF-CEM > 100 µM | Malme-3M > 100 µM | MCF7 > 100 µM

N#Cc1nc(COCCOCc2ccccc2)oc1N
inactive: HCC 2998 > 100 µM | SR > 100 µM | MOLT-4 > 100 µM | NCI-H522 23 µM | SK-MEL-2 > 100 µM | RPMI-8226 > 100 µM | MDA-N > 100 µM | SK-MEL-28 > 100 µM | UACC-62 > 100 µM | 786-0 > 100 µM | OVCAR-5 > 100 µM | MDA-MB-231 > 100 µM | NCI-H226 > 100 µM | ACHN > 100 µM | HCT-116 > 100 µM | SNB-19 > 100 µM | BT-549 88.9 µM | CCRF-CEM 30 µM | Malme-3M > 100 µM | MCF7 > 100 µM

CC(C)SC(=S)Sc1c(Cl)c(Cl)nc(Cl)c1Cl
inactive: HCC 2998 3.31 µM | SR 2.83 µM | MOLT-4 2.65 µM | NCI-H522 4.9 µM | SK-MEL-2 7.82 µM | RPMI-8226 1.75 µM | MDA-N 5.27 µM | SK-MEL-28 18.7 µM | UACC-62 9.35 µM | 786-0 2.33 µM | OVCAR-5 16.3 µM | MDA-MB-231 12.7 µM | NCI-H226 24.9 µM | ACHN 6.98 µM | HCT-116 10.5 µM | SNB-19 7.55 µM | BT-549 15.3 µM | CCRF-CEM 1.91 µM | Malme-3M 15.7 µM | MCF7 4.06 µM

Cc1nc(-n2nc(-c3ccccc3)cc2-c2ccccc2)sc1C(=O)/C=C/c1ccc([N+](=O)[O-])cc1
inactive: HCC 2998 16.2 µM | SR 2.86 µM | MOLT-4 10.9 µM | NCI-H522 16.5 µM | SK-MEL-2 43.1 µM | RPMI-8226 10.5 µM | MDA-N 19.2 µM | SK-MEL-28 28.7 µM | UACC-62 19.4 µM | 786-0 13 µM | OVCAR-5 > 59.4 µM | MDA-MB-231 33.1 µM | NCI-H226 57.8 µM | ACHN 26.5 µM | HCT-116 12.7 µM | SNB-19 24.2 µM | BT-549 13.2 µM | CCRF-CEM 14 µM | Malme-3M 34.2 µM | MCF7 5.74 µM
